Target: T1, human mAChR M1 (Homo sapiens, UniProt P11229)
T1 construct: host or cells: CHO-K1 (ATCC), stably transfected
T1 sequence (P11229 1-460): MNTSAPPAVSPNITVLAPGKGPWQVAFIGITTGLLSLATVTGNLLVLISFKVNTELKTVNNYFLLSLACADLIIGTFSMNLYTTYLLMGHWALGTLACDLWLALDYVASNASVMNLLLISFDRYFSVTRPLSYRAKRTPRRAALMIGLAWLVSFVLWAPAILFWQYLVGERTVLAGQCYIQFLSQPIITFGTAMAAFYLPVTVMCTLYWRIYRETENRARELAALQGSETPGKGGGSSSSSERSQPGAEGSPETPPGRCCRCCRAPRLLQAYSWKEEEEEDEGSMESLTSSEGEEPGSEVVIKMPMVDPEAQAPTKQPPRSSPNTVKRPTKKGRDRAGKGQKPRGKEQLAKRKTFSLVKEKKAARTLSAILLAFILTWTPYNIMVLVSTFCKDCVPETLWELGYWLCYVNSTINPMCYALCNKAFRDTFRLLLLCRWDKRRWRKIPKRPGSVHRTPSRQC
Assay: mAChR M1 cell-based functional assay (calcium flux, antagonism of EC80 acetylcholine response, hM1 CHO-K1 cells)
Details: for Human M1 Emin: % ACh maximum at 30 μM; for IC50: decrease of the response elicited by an EC80 concentration of acetylcholine, CHO-K1 cells
Experimental: hM1 cDNA was purchased from Missouri S&T cDNA Resource and used to stably transfect CHO-K1 cells purchased from the American Type Culture Collection using Lipofectamine2000. hM1 cells were grown in Ham's F-12 medium containing 10% heat-inactivated fetal bovine serum (FBS), 20 mM HEPES, and 50 μg/mL G418 sulfate.
For high throughput measurement of agonist-evoked increases in intracellular calcium, CHO-K1 cells stably expressing muscarinic receptors were plated in growth medium lacking G418 and hygromycin at 15,000 cells/20 μL/well in Greiner 384-well black-walled, tissue culture (TC)-treated, clear-bottom plates (VWR). Cells were incubated overnight at 37° C. and 5% CO2. The next day, cells were washed using an ELX 405 (BioTek) with four washes (80 μL) of assay buffer then aspirated to 20 μL. Next, 20 μL of 16 μM Fluo-4/acetoxymethyl ester (Invitrogen, Carlsbad, CA) prepared as a 2.3 mM stock in DMSO and mixed in a 1:1 ratio with 10% (w/v) Pluronic F-127 and diluted in assay buffer was added to the wells and the cell plates were incubated for 50 min at 37° C. and 5% CO2. Dye was removed by washing with the ELX 405 (four 80 μL washes of assay buffer) then aspirated to 20 μL. Compound master plates were formatted in an 11-point CRC format (1:3 dilutions) in 100% DMSO with a starting concentration of 10 mM using the BRAVO liquid handler (Agilent). Test compound CRCs were then transferred to daughter plates (240 nL) using the Echo acoustic plate reformatter (Labcyte, Sunnyvale, CA) and then diluted into assay buffer (40 μL) to a 2× stock using a Thermo Fisher Combi (Thermo Fisher Scientific, Waltham, MA).
Calcium flux was measured using the Functional Drug Screening System (FDSS) 6000 (Hamamatsu Corporation, Tokyo, Japan) as an increase in the fluorescent static ratio. Compounds were applied to cells (20 μL, 2×) using the automated system of the FDSS 6000 at 4 s into the 300 s protocol and the data were collected at 1 Hz. At 144 s into the 300 s protocol, 10 μL of an EC20 concentration of the muscarinic receptor agonist acetylcholine was added (5×), followed by the addition of 12 μL an EC80 concentration of acetylcholine at the 230 s time point (5×). Agonist activity was analyzed as a concentration-dependent increase in calcium mobilization upon compound addition. Emax values for agonist activity are expressed relative to the maximum for acetylcholine. Positive allosteric modulator activity was analyzed as a concentration-dependent increase in the EC20 acetylcholine response. Antagonist activity was analyzed as a concentration-dependent decrease in the EC80 acetylcholine response; for the purposes of the tables herein, an IC50 (inhibitory concentration 50) was calculated as a concentration-dependent decrease of the response elicited by an EC80 concentration of acetylcholine. […]
The above-described assay was also operated in a second mode where an appropriate fixed concentration of the present compounds were added to the cells after establishment of a fluorescence baseline for about 3 seconds, and the response in cells was measured. 140 s later the appropriate concentration of agonist was added and readings taken for an additional 106 s. Data were reduced as described above and the EC50 values for the agonist in the presence of test compound were determined by nonlinear curve fitting. […]

| Structure (SMILES) | Human M1 Emin | human mAChR M1 antagonist activity, comparison in words (compound 61 versus compound 62, from Table 3) | IC50 |
| --- | --- | --- | --- |
| [2H]C([2H])([C@H]1CCOC(C)(C)C1)N1C[C@H]2C[C@H](Nc3ccc(-c4cccnc4C(F)(F)F)nn3)C[C@H]2C1 (single isomer, unassigned) [Compound 61] | 20% | less human mAChR M1 antagonist activity than compound 62 | > 10000 nM |
| [2H]C([2H])([C@@H]1CCOC(C)(C)C1)N1C[C@H]2C[C@H](Nc3ccc(-c4cccnc4C(F)(F)F)nn3)C[C@H]2C1 [Compound 62, (3aR,5s,6aS)-2-(((R)-2,2-dimethyltetrahydro-2H-pyran-4-yl)methyl-d2)-N-(6-(2-(trifluoromethyl)pyridin-3-yl)pyridazin-3-yl)octahydrocyclopenta[c]pyrrol-5-amine] | 6% | – | 610 nM |

From patent US20240109873A1, “ANTAGONISTS OF THE MUSCARINIC ACETYLCHOLINE RECEPTOR M4” (Vanderbilt University, priority 2020, published 2024)
